Experimental findings from patent US11840686B2, “Modulation of prekallikrein (PKK) expression” (Ionis Pharmaceuticals, Inc., priority 2013, dated 2023) are described below.

In general, % inhibition refers to how much of the control response was suppressed. Low values mean little suppression, high ones strong suppression.

The data set deals with human PKK mRNA. In words: Antisense inhibition of human PKK mRNA in HepaRG cells, 1,000 nM, MOE/deoxy/cEt oligonucleotides (Example 3). Conditions: HepaRG cells, electroporation with 1,000 nM antisense oligonucleotide, PKK mRNA by RT-PCR (RTS3454), relative to untreated control cells. The class given is cell-based. Put shortly:
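HepaRG cells at 20,000 per well electroporated with 1,000 nM 16-mer MOE/cEt/deoxy gapmers (phosphorothioate, 5-methylcytosine). After about 24 h, PKK mRNA measured by qRT-PCR with primer probe set RTS3454, normalized to RIBOGREEN total RNA. Reported as percent inhibition versus untreated cells.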

Setting [1] is: Table 20, approximately 24 hours.
Where [2] appears, read: Table 22 experiment, approx. 24 hours.

Strand notation (5' to 3'): a small letter for the sugar, then the base; units joined by * are phosphorothioate-linked, units joined directly phosphodiester-linked; [ ] holds rarer units or linkages, { } end groups; capitals alone tell only the bases. e = 2'-O-(2-methoxyethyl) (MOE); k = constrained ethyl (cEt); [5mC] = 5-methylcytosine; d = 2'-deoxy (DNA)

Take “547886 (e[5mC]*eG*kG*dT*dA*d[5mC]*dT*d[5mC]*dT*dG*d[5mC]*d[5mC]*dT*kT*kG*eT; antisense) [compound 547886]”: the “% inhibition” value is, setting by setting: under setting [1], 97%; under setting [2], 89%. For the substance “547887 (e[5mC]*e[5mC]*kG*dG*dT*dA*d[5mC]*dT*d[5mC]*dT*dG*d[5mC]*d[5mC]*kT*kT*eG; antisense) [compound 547887]”, the “% inhibition” value under setting [2] came out at 99%. For the substance “547888 (eT*e[5mC]*k[5mC]*dG*dG*dT*dA*d[5mC]*dT*d[5mC]*dT*dG*d[5mC]*k[5mC]*kT*eT; antisense) [compound 547888]”, the “% inhibition” value under setting [2] amounted to 99%. For “547889 (eT*eT*k[5mC]*d[5mC]*dG*dG*dT*dA*d[5mC]*dT*d[5mC]*dT*dG*k[5mC]*k[5mC]*eT; antisense) [compound 547889]”, the “% inhibition” value runs as follows: under setting [1], 91%; under setting [2], 97%. Taken in the same sequence, the figures for “547890 (eT*eT*kG*dT*dT*d[5mC]*d[5mC]*dG*dG*dT*dA*d[5mC]*dT*k[5mC]*kT*eG; antisense) [compound 547890]” were 97% and 90%. “547891 (eA*eT*kT*dG*dT*dT*d[5mC]*d[5mC]*dG*dG*dT*dA*d[5mC]*kT*k[5mC]*eT; antisense) [compound 547891]”: the “% inhibition” value is, setting by setting: under setting [1], 84%; under setting [2], 88%. Taken in the same sequence, the figures for “547892 (e[5mC]*eA*kA*dT*dT*dG*dT*dT*d[5mC]*d[5mC]*dG*dG*dT*kA*k[5mC]*eT; antisense) [compound 547892]” were 29% and 28%. With “547893 (eG*e[5mC]*kA*dA*dT*dT*dG*dT*dT*d[5mC]*d[5mC]*dG*dG*kT*kA*e[5mC]; antisense) [compound 547893]”, the “% inhibition” value under setting [1] is 81% and the “% inhibition” value under setting [2] came out at 80%.

Consider “547894 (eG*eG*k[5mC]*dA*dA*dT*dT*dG*dT*dT*d[5mC]*d[5mC]*dG*kG*kT*eA; antisense) [compound 547894]”, for which the “% inhibition” value runs as follows: under setting [1], 92%; under setting [2], 91%. Turning to “547895 (eA*eG*kG*d[5mC]*dA*dA*dT*dT*dG*dT*dT*d[5mC]*d[5mC]*kG*kG*eT; antisense) [compound 547895]”, the “% inhibition” value under setting [2] came to 94%. With “547896 (eT*eA*kG*dG*d[5mC]*dA*dA*dT*dT*dG*dT*dT*d[5mC]*k[5mC]*kG*eG; antisense) [compound 547896]”, the “% inhibition” value under setting [2] turned out to be 95%. The same measure, in the same setting: with “547897 (eA*eT*kA*dG*dG*d[5mC]*dA*dA*dT*dT*dG*dT*dT*k[5mC]*k[5mC]*eG; antisense) [compound 547897]” the figure was 82%. For “547898 (e[5mC]*eT*kT*dT*dA*dA*dT*dA*dG*dG*d[5mC]*dA*dA*kT*kT*eG; antisense) [compound 547898]”, the “% inhibition” value is, setting by setting: under setting [1], 0%; under setting [2], 28%. Take “547899 (eG*eT*kA*d[5mC]*dT*dT*dT*dA*dA*dT*dA*dG*dG*k[5mC]*kA*eA; antisense) [compound 547899]”: the “% inhibition” value reads like this: under setting [1], 49%; under setting [2], 68%. As for “547900 (eT*eG*kT*dA*d[5mC]*dT*dT*dT*dA*dA*dT*dA*dG*kG*k[5mC]*eA; antisense) [compound 547900]”, the “% inhibition” value reads like this: under setting [1], 93%; under setting [2], 68%. Regarding “547901 (e[5mC]*eT*kG*dT*dA*d[5mC]*dT*dT*dT*dA*dA*dT*dA*kG*kG*e[5mC]; antisense) [compound 547901]”, the “% inhibition” value stood at 77% under setting [1] and 85% under setting [2].

For “547902 (eA*e[5mC]*kT*dG*dT*dA*d[5mC]*dT*dT*dT*dA*dA*dT*kA*kG*eG; antisense) [compound 547902]”, the “% inhibition” value under setting [1] is recorded as 20% and the “% inhibition” value under setting [2] worked out at 33%.

Regarding “547903 (e[5mC]*eT*k[5mC]*dA*dG*d[5mC]*dA*d[5mC]*d[5mC]*dT*dT*dT*dA*kT*kA*eG; antisense) [compound 547903]”, the “% inhibition” value turned out to be 62% under setting [1] and 6% under setting [2]. Take “547904 (eA*e[5mC]*kT*d[5mC]*dA*dG*d[5mC]*dA*d[5mC]*d[5mC]*dT*dT*dT*kA*kT*eA; antisense) [compound 547904]”: the “% inhibition” value is, setting by setting: under setting [1], 56%; under setting [2], 41%.

For “547905 (eT*eA*k[5mC]*dT*d[5mC]*dA*dG*d[5mC]*dA*d[5mC]*d[5mC]*dT*dT*kT*kA*eT; antisense) [compound 547905]”, the “% inhibition” value by setting is: under setting [1], 20%; under setting [2], 59%. As to “547906 (eT*eT*kA*d[5mC]*dT*d[5mC]*dA*dG*d[5mC]*dA*d[5mC]*d[5mC]*dT*kT*kT*eA; antisense) [compound 547906]”, the “% inhibition” value reads like this: under setting [1], 59%; under setting [2], 70%.

For “547907 (eA*eT*kT*dT*d[5mC]*dT*dG*dA*dA*dA*dG*dG*dG*k[5mC]*kA*e[5mC]; antisense) [compound 547907]”, the “% inhibition” value is, setting by setting: under setting [1], 27%; under setting [2], 27%.

Take “547908 (e[5mC]*eA*kA*dT*dT*dT*d[5mC]*dT*dG*dA*dA*dA*dG*kG*kG*e[5mC]; antisense) [compound 547908]”: the “% inhibition” value runs as follows: under setting [1], 94%; under setting [2], 71%. The matching figures for “547909 (e[5mC]*e[5mC]*kA*dA*dT*dT*dT*d[5mC]*dT*dG*dA*dA*dA*kG*kG*eG; antisense) [compound 547909]”: 82% and 51%. On to “547910 (eA*e[5mC]*k[5mC]*dA*dA*dT*dT*dT*d[5mC]*dT*dG*dA*dA*kA*kG*eG; antisense) [compound 547910]”, for which the “% inhibition” value under setting [1] was determined as 26% and the “% inhibition” value under setting [2] stood at 34%. The matching figures for “547911 (eT*eG*kG*d[5mC]*dA*dA*d[5mC]*d[5mC]*dA*dA*dT*dT*dT*k[5mC]*kT*eG; antisense) [compound 547911]”: 0% and 15%. “547912 (eA*eT*k[5mC]*d[5mC]*dA*d[5mC]*dA*dT*d[5mC]*dT*dG*dA*dG*kA*kA*e[5mC]; antisense) [compound 547912]”: the “% inhibition” value is, setting by setting: under setting [1], 23%; under setting [2], 53%. The matching figures for “547913 (eG*e[5mC]*kA*dA*d[5mC]*dA*dT*d[5mC]*d[5mC]*dA*d[5mC]*dA*dT*k[5mC]*kT*eG; antisense) [compound 547913]”: 71% and 61%. As to “547914 (eG*eG*k[5mC]*dA*dA*d[5mC]*dA*dT*d[5mC]*d[5mC]*dA*d[5mC]*dA*kT*k[5mC]*eT; antisense) [compound 547914]”, the “% inhibition” value is 74% under setting [1] and 63% under setting [2].

Consider “547915 (eT*eG*kG*d[5mC]*dA*dA*d[5mC]*dA*dT*d[5mC]*d[5mC]*dA*d[5mC]*kA*kT*e[5mC]; antisense) [compound 547915]”, for which the “% inhibition” value stood at 0% under setting [1] and 62% under setting [2]. Consider “547916 (e[5mC]*e[5mC]*kT*dG*dG*d[5mC]*dA*dA*d[5mC]*dA*dT*d[5mC]*d[5mC]*kA*k[5mC]*eA; antisense) [compound 547916]”, for which the “% inhibition” value is, setting by setting: under setting [1], 70%; under setting [2], 56%.
